{"source": "patent US20260053778A1", "about": "“USE OF NOVEL PPAR ACTIVITY MODULATOR FOR PREVENTION, AMELIORATION OR TREATMENT OF DEGENERATIVE BRAIN DISEASES” (POSTECH RESEARCH AND BUSINESS DEVELOPMENT FOUNDATION, priority 2022, published 2026)", "key": {"RAW 264.7 cell line": {"system": "RAW 264.7 cell line", "test": "Cell viability assay (MTT), RAW 264.7", "assay_type": "cell-based", "details": "RAW 264.7, 48 h, at higher concentrations", "description": "(§1) Cell viability was measured by a chromogenic assay that biologically reduces 3-(4,5-dimethyl-thiazol-2-yl)-2,5-diphenyltetrazolium bromide (MTT) to formazan in living cells. Briefly, cells were cultured in 96-well plates in a final volume of 100 μL. After 24 h, the culture medium was replaced with fresh medium containing DTMB compound, and the cells were cultured for another 48 h. Next, MTT (dissolved in PBS at 5 mg/mL) was added to the culture medium. The cells were cultured in the dark at 37° C. for 1 h, and then the supernatant was removed from the wells. The formazan crystals were dissolved by adding total MTT solvent (4 mM HCl and 0.1% Nonidet P-40, both dissolved in isopropanol), and the absorbance was measured at 570 nm using a microplate reader, Infinite 200 Pro NanoQuant microplate reader (TECAN, Switzerland)."}, "HMO6 cell line": {"system": "HMO6 cell line", "test": "Cell viability assay (MTT), HMO6", "assay_type": "cell-based", "details": "HMO6, 48 h, at higher concentrations", "description": "as §1"}, "RAW 264.7 macrophages": {"system": "RAW 264.7 macrophages", "test": "NO production inhibition (Griess assay) in LPS-treated macrophages", "assay_type": "cell-based", "details": "LPS-induced", "description": "Previous studies have reported that all three subtypes of PPAR inhibit inflammatory responses through inhibition of the activity and quantitative changes of the NF-κB transcription factor, a major regulator of inflammatory responses.\nFirst, RAW 264.7 macrophages were cultured in a humidified atmosphere of 37° C. in a 5% CO2 incubator with DMEM containing 10% FBS and 1% penicillin/streptomycin. After inducing an inflammatory response in RAW 264.7 macrophages by LPS treatment, the Griess assay (Promega) was performed according to the manufacturer's instructions to measure the concentration of nitrite."}, "[1]": {"system": "microglial cells isolated from mice", "test": "Western blotting of NF-κB, NLRP-3 and ASC in primary microglia", "assay_type": "cell-based, mouse", "details": "primary microglia treated with Aβ aggregates or LPS, Western blot", "description": "To confirm the mechanism by which DTMB exerts its anti-inflammatory effect, microglial cells isolated from mice were treated with Aβ aggregates or LPS to induce an inflammatory response, and then DTMB was treated to determine the levels of NF-κB, NLRP-3, and ASC proteins by western blotting.\nThe cells were lysed with lysis buffer containing 50 mM Tris (pH 7.4), 140 mM NaCl, 5 mM EDTA, and protease inhibitor tablets, and then sonicated. The protein concentration of the lysate was determined using Bradford reagent (AMERSCO, MA, USA). Proteins were separated by sodium dodecyl sulfate (SDS) polyacrylamide gel electrophoresis, transferred to nitrocellulose membranes (Pall Corporation, New York, NY, USA), and incubated with blocking buffer (5% nonfat dry milk and 0.1% Tween 20 in TBS) for 30 min. Western blot analysis was performed using primary antibodies against NF-κB, NLRP3, and ASC (Cell Signaling Technology, Danvers, MA, USA). Secondary antibodies from rabbit (Promega), rat, and goat (Bethyl Laboratories) were used, and detection was performed using SUPEX ECL reagent (Neuronex, Korea) and ImageQuant LAS-4000 (GE Healthcare, MA, USA) according to the manufacturer's instructions. Integrated blot densities were quantified using ImageJ."}, "NF-κB": {"system": "NF-κB", "test": "NF-κB gene expression by qPCR after MG132 and DTMB", "assay_type": "cell-based", "details": "MG132 (20 μM) 6 hours, DTMB (25 μM) 24 hours", "description": "In addition, to inhibit proteasomal degradation, cells were treated with MG132 (20 μM) for 6 hours and DTMB (25 μM) for 24 hours, and then the gene expression level of NF-κB was confirmed by qPCR analysis. As shown in the results of FIGS. 2L and 2M, this response was mediated by proteasomal degradation rather than transcriptional inhibition, since there was no change in the mRNA level of NF-κB."}, "5×FAD mice [2]": {"system": "5×FAD mice", "test": "Aβ monomer Western blot and filter trap assay of brain lysates", "assay_type": "in vivo, mouse", "details": "brain tissue lysates, 6e10 Western blot", "description": "To investigate the soluble and insoluble Aβ components, two extraction steps were performed. Left hemisphere samples were homogenized at a concentration of 100 mg/mL in cold Tris-buffered saline (TBS consisting of 50 mM Tris-pH 7.5 and 150 mM NaCl) with a protease inhibitor cocktail (Thermo Fisher Scientific, Waltham, MO, USA). After centrifugation at 15,000 rpm for 1 hour at 4° C., the supernatant of the sample was used for western blotting. Insoluble proteins were extracted from the pellet by dissolving in 5 M guanidine buffer (5 M guanidine HCl and 150 mM NaCl-pH 7.5). Soluble and insoluble protein samples were stored at −80° C.\nThe insoluble fraction of the protein lysate from 5×FAD mice was diluted in 1% SDS-PBS and boiled at 95° C. for 5 min. The membrane was pre-equilibrated with 1×TBS. A dot blotter apparatus (Bio-Rad Laboratories, Hercules, CA, USA) was used for sample application, and the 6e10 antibody was used to detect the Aβ content in the brain lysate from 5×FAD mice treated with DTMB. The sample size was 3 mice per group."}, "[3]": {"system": "5×FAD Alzheimer's dementia-induced mice", "test": "Immunohistochemistry of gliosis (IBA-1, GFAP) in brain tissue", "assay_type": "in vivo, mouse", "details": "cerebral cortex and hippocampus, IBA-1 and GFAP staining, 5×FAD mice, DTMB 10 mg/kg orally", "description": "The degree of gliosis was confirmed through immunochemical analysis using antibodies against IBA-1, a specific protein of microglia, and GFAP, a specific protein of astrocytes. Specifically, immunohistochemistry was performed in the same manner as in Example 6-1 using anti-Iba1 antibody (Wako, Japan, 1:200) and anti-GFAP antibody (Abcam, Cambridge, UK, 1:200) as primary antibodies."}, "5×FAD mice [4]": {"system": "5×FAD mice", "test": "Western blot of NLRP3, NF-κB and ASC in hippocampal tissue", "assay_type": "in vivo, mouse", "details": "hippocampal brain lysate", "description": "The protein levels of NLRP3, NF-κB, and ASC in the hippocampal tissues isolated from 5×FAD mice and DTMB-treated 5×FAD mice were confirmed by Western blot. Western blot analysis was performed in the same manner as in Example 2-4 using primary antibodies against NLRP3, NF-κB, and ASC (Cell Signaling Technology, Danvers, MA, USA)."}}}
{"smiles": "COc1ccc(-c2cc(=O)oc3c(C)c(OC(=O)[C@H](Cc4c[nH]c5ccccc45)NC(=O)OC(C)(C)C)ccc23)cc1", "note": "[DTMB, [4-(4-Methoxyphenyl)-8-methyl-2-oxochromen-7-yl](2S)-3-(1H-indol-3-yl)-2-[(2-methylpropan-2-yl)oxycarbonylamino]propanoate]", "values": [{"measurement": "Cytotoxicity (MTT)", "setting": "RAW 264.7 cell line", "result": "no cytotoxicity"}, {"measurement": "Cytotoxicity (MTT)", "setting": "HMO6 cell line", "result": "no cytotoxicity"}, {"measurement": "NO production inhibition compared with PPAR modulators", "setting": "RAW 264.7 macrophages; at the same concentration", "result": "more effectively than WY14643, a PPARα modulator, and rosiglitazone, a PPARγ modulator"}, {"measurement": "IC50", "setting": "RAW 264.7 macrophages; Mus musculus, RAW264.7, Griess reagent", "result": 1.23, "unit": "µM"}, {"measurement": "NF-κB protein level", "setting": "[1]", "result": "reducing NF-κB"}, {"measurement": "NLRP3 protein level", "setting": "[1]", "result": "reduced"}, {"measurement": "mRNA level of NF-κB", "setting": "NF-κB", "result": "no change"}, {"measurement": "Amyloid β monomers", "setting": "5×FAD mice [2]", "result": "not reduced"}, {"measurement": "Hyperactivity of microglia and astrocytes (gliosis)", "setting": "[3]", "result": "significantly reduced"}, {"measurement": "ASC level", "setting": "5×FAD mice [4]", "result": "did not change significantly"}, {"measurement": "Protein level of NF-κB", "setting": "5×FAD mice [4]", "result": "decreased"}, {"measurement": "Protein level of NLRP3", "setting": "5×FAD mice [4]", "result": "decreased"}]}
